Assays:
[1] = test system: human citrated whole blood (CWB); assay: Whole blood clotting time after recalcification (Amelung KC4A Micro, or instrument not named); format: cell-based
Method: Clotting time of whole blood enables the contribution of both the cellular elements (leukocytes, red blood cells, platelets) and plasma (the liquid sustaining the cellular components) to be evaluated. The citrate anticoagulated sample is brought to 37° (body temperature) and calcium ion is added to initiate the coagulation cascade. Many instruments are available to determine the time between calcium addition and the formation of the blood clot (clotting time). The time for this complex phenomenon to occur can be shorter than normal (hypercoagulable), within the normal range, and longer than normal (hypocoagulable state). Some disease states are characterized by hypercoagulable clotting states and include coronary artery disease, some cancer, diabetes, multiple sclerosis, stroke etc. The hypocoagulable states include hemophilia, and patients receiving anticoagulant therapies.
(§1) Human citrated whole blood (CWB) samples were gently inverted several times to ensure homogeneity and stored on ice to prevent protein denaturation. Ten microliters of physiologic saline was added to 490 μl of CWB (control), gently mixed, and incubated at 37° C. for 10 minutes. Coagulation was initiated by transferring 300 μl of blood sample to a cuvette containing 32 μl of 0.1 M CaCl2. After gently mixing the sample and ensuring no air bubble formations in the cuvette, the whole blood clotting times were recorded on an Amelung KC4A Micro Coagulation Analyzer (Sigma Diagnostics, St. Louis, Mo., USA), a device that uses the relative displacement of a magnetic bead due to fibrin formation to determine the clotting time. In addition, the Sonoclot Coagulation Analyzer (Sienco, Wheat Ridge, Colo., USA), a miniviscometer that is sensitive to fibrin polymer formation and fibrinolysis, was also employed to determine the whole blood clotting time. Both clinical instruments are FDA approved and used to evaluate blood coagulation processes at 37° C.
(§2) Clotting time values obtained within each study were evaluated by repeated measures analysis of variance (ANOVA) followed by Tukey-Kramer multiple comparison tests. All statistical analyses were assessed using two-sided paired Student t tests and significance was defined as p<0.05.

[2] = test system: human citrated whole blood (CWB); assay: Whole blood clotting time, Sonoclot Coagulation Analyzer; format: cell-based
Method: as §1, §2
In the previous experiments, the whole blood clotting times were measured using the Amelung KC4A Micro, an instrument approved by the FDA to measure blood coagulation processes. Another FDA approved instrument used to measure blood coagulation and fibrinolysis is the Sonoclot Coagulation Analyzer.

[3] = test system: red blood cells in anticoagulated human blood; assay: Erythrocyte Sedimentation Rate (ESR) in vitro; format: cell-based; conditions: for ESR value: n=13
From the text: When anticoagulated blood is allowed to remain undisturbed in a long thin tube, the erythrocytes (red blood cells) begin to settle. The rate these cells settle may be a biomarker of the immune system status of the donor's blood. Many chronic diseases and those which create increased morbidity and mortality show increases (larger distance of settling) in ESR than age-matched healthy individuals. The ESR can also monitor the effects of therapeutics or procedures on the patient.
The ESR is the distance red blood cells settle in anticoagulated blood in one hour (mm/hr). These test results are elevated in many diseases that affect the immune system (infections, arthritis, cancer, heart diseases).

citrated whole blood = assay: Glucose-accelerated clotting time (Diagnostica Stago ST4 and Sonoclot); format: cell-based, human; conditions: for Glucose-accelerated clotting time: after 24 hours
Method: Citrated whole blood samples were obtained from the University Hospital's clinical laboratory with prior IRB approval. Samples were treated with different concentrations of glucose (6.0 mM, 9.0 mM, and 12.0 mM) to determine if a dose-response relationship existed between the glucose concentration and clotting time. Clotting times were then recorded using a Diagnostica Stago ST4 Coagulation Analyzer. […] The samples were incubated for 10 minutes prior to the addition of glucose (12.0 mM). After 24 hours, clotting times were recorded using a Diagnostica Stago ST4 and Sonoclot Coagulation Analyzer (FIG. 2). Results and Discussion

plasma = assay: GDL dose response on plasma clotting time; format: biochemical; conditions: GDL dose response curve in plasma
[4] = no refrigeration required; cited from earlier work

Molecule: O=C1O[C@H](CO)[C@@H](O)[C@H](O)[C@H]1O [GDL, glucono-delta-lactone]
- Mean Clotting Times ([1]; 2 μg GDL per mL CWB, n=8, control 264.38 ± 24.17): 271.13 ± 24.83 s
- mean clotting time ([1]; 2.90 μg GDL/mL CWB, n=4, saline 254.08±27.37): 246.55±28.32
- mean clotting time ([1]; 23.00 μg GDL/mL CWB, n=4): 307.90±16.82
- mean clotting time ([1]; 184.00 μg GDL/mL CWB, n=4): 387.33±52.36
- mean clotting time ([1]; 1.48 mg GDL/mL CWB, n=4): 444.55±92.01
- Mean Clotting Times ([1]; 11.8 mg GDL per mL CWB, n=16, control 252.25 ± 25.05): 618.31 ± 71.81 s
- mean clotting time ([1]; 11.80 mg GDL/mL CWB, n=4): 687.37±51.23
- Mean Clotting Times ([1]; 0.2% TF plus 11.8 mg GDL per mL CWB, n=16): 418.44 ± 80.46 s
- Mean Clotting Times ([1]; 0.2 Unit LMWH (dalteparin sodium) plus 2 μg GDL per mL CWB, n=8): 456.15 ± 47.45 s
- Mean Clotting Times ([1]; 0.2 Unit UFH plus 2 μg GDL per mL CWB, n=8): 572.51 ± 45.94 s
- Mean Clotting Times ([1]; 0.3 Unit LMWH (enoxaparin sodium) plus 2.9 μg GDL per mL CWB, n=4): 240.73 ± 29.58 s
- Mean Clotting Times ([1]; 0.3 Unit LMWH (enoxaparin sodium) plus 10 μg GDL per mL CWB, n=4): 294.50 ± 46.16 s
- Mean Clotting Times ([1]; 0.3 Unit LMWH (enoxaparin sodium) plus 23 μg GDL per mL CWB, n=4): 336.28 ± 51.79 s
- Mean Clotting Times ([1]; 0.3 Unit LMWH (enoxaparin sodium) plus 184 μg GDL per mL CWB, n=4): 381.23 ± 61.83 s
- Mean Clotting Times ([1]; 0.3 Unit LMWH (enoxaparin sodium) plus 1.48 mg GDL per mL CWB, n=4): 442.45 ± 63.38 s
- Mean Clotting Times ([1]; 0.3 Unit LMWH (enoxaparin sodium) plus 11.8 mg GDL per mL CWB, n=4): 542.88 ± 54.17 s
- Mean Clotting Times ([1]; 0.3 Unit UFH plus 2.9 μg GDL per mL CWB, n=5): 415.10 ± 101.63 s
- Mean Clotting Times ([1]; 0.3 Unit UFH plus 10 μg GDL per mL CWB, n=5): 498.94 ± 81.24 s
- Mean Clotting Times ([1]; 0.3 Unit UFH plus 23 μg GDL per mL CWB, n=5): 675.34 ± 129.28 s
- Mean Clotting Times ([1]; 0.3 Unit UFH plus 184 μg GDL per mL CWB, n=5): 825.96 ± 160.74 s
- Mean Clotting Times ([1]; 0.3 Unit UFH plus 1.48 mg GDL per mL CWB, n=5): 926.44 ± 192.03 s
- Mean Clotting Times ([1]; 0.3 Unit UFH plus 11.8 mg GDL per mL CWB, n=5): 1197.89 ± 114.32 s
- mean clotting time ([1]; CWB + GDL, n=9 (GDL 3 mg/ml)): 270 s
- mean clotting time ([1]; CWB + TF + GDL, n=9 (GDL 3 mg/ml)): 134 s
- change of whole blood clotting time over GDL concentration range ([1]; GDL 0.016 mM-66.24 mM): increased about three fold
- clotting time versus control ([1]; GDL 3 mg/ml incubated in blood with bacterial endotoxin): significantly (p≦0.05) increase the clotting time
- mean clotting time ([1]; GDL 4 mg/ml, after four days in the refrigerator (4°), control 177±17): 342 ± 32 s
- mean clotting time ([1]; GDL 4 mg/ml, day 1, n=10, control 250±16): 432 ± 16 s
- clotting time ([1]; Study III: 60 ng/ml histamine, 3 mg/ml GDL, n=8): 305 ± 30 s
- clotting time ([1]; Study III: 60 ng/ml histamine, 4 mg/ml GDL, n=8): 325 ± 53 s
- clotting time ([1]; Study IV: 1 μg/ml histamine added first, 1 mg/ml GDL, n=8): 297 ± 113 s
- clotting time ([1]; Study IV: 1 μg/ml histamine added first, 2 mg/ml GDL, n=8): 304 ± 121 s
- clotting time ([1]; blood containing protease 35 μg/ml plus GDL 4 mg/ml): 154 ± 55 s
- clotting time ([1]; blood exposed to tissue factor plus GDL 3 mg/ml, TF alone 101): 134 s
- anticoagulant effect ([1]; concentrations greater than 184 μg GDL per mL of blood, n=4, p<0.05): potent anticoagulant
- clotting time ([1]; trypsin-treated blood plus GDL 6 mg/ml, n=4): 83 ± 19 s
- Mean Clotting Times ([2]; 11.8 mg GDL per mL CWB, n=16, control 262.63 ± 49.67): 631.75 ± 74.55 s
- Mean Clotting Times ([2]; 0.2 Unit LMWH (dalteparin sodium) plus 11.8 mg GDL per mL CWB, n=16): 844.94 ± 77.99 s
- Mean Clotting Times ([2]; 0.2 Unit UFH plus 11.8 mg GDL per mL CWB, n=16): 852.00 ± 80.72 s
- ESR value ([3]; 0.1 mg/ml GDL, control 20±13): 18±14 mm/hr
- ESR value ([3]; 3.0 mg/ml GDL): 16±12 mm/hr
- ESR value ([3]; 6.0 mg/ml GDL): 15±12 mm/hr
- ESR ([3]; GDL 1 mg/ml alone): 9.6 mm
- Methylcellulose (MC)-accelerated ESR ([3]; MC 0.1% plus GDL 1 mg/ml, N=8, p<0.05): 34.6 mm
- ESR ([3]; MC + GDL (MC 0.1 mg/ml, GDL 1 mg/ml)): 30.1 mm
- effect of GDL on clotting time in the presence of excess glucose (FIG. 2) (citrated whole blood; GDL 3 mg/ml and 4 mg/ml, glucose 12.0 mM): prolonging clotting time even in the presence of excess glucose
- Glucose-accelerated clotting time (citrated whole blood; glucose (12.0 mM) plus GDL 3 mg/ml): 243 ± 70 s
- Glucose-accelerated clotting time (citrated whole blood; glucose (12.0 mM) plus GDL 4 mg/ml): 334 ± 107 s
- anticoagulant effect in plasma (plasma): a similar anticoagulant effect was observed
- stability at room temperature [4]: not susceptible to degradation at room temperatures

Molecule: Protamine sulfate [PS, reference compound]
- Mean Clotting Times ([1]; 2 μg PS per mL CWB, n=8): 294.26 ± 22.92 s
- Mean Clotting Times ([1]; 0.2 Unit LMWH (dalteparin sodium) plus 2 μg PS per mL CWB, n=8): 433.96 ± 56.96 s
- Mean Clotting Times ([1]; 0.2 Unit UFH plus 2 μg PS per mL CWB, n=8): 464.71 ± 42.83 s

Molecule: NCCc1c[nH]cn1 [histamine, reference compound]
- clotting time ([1]; Study III: 60 ng/ml histamine, 0 mg/ml GDL, n=8, control 264±38): 220 ± 39 s
- clotting time ([1]; Study IV: 1 μg/ml histamine, 0 mg/ml GDL, n=8, control 306±108): 253 ± 136 s
- clotting time ([1]; histamine 20 ng/ml, n=8, control 264±80): 257 ± 105 s
- clotting time ([1]; histamine 40 ng/ml, n=8): 240 ± 42 s
- clotting time ([1]; histamine 60 ng/ml, n=8): 235 ± 73 s
- clotting time ([1]; histamine 20 μg/ml, 10 minutes at 37°, n=9, control 300±72): 252 ± 61 s
- clotting time ([1]; histamine 40 μg/ml, 10 minutes at 37°, n=9): 230 ± 49 s
- clotting time ([1]; histamine 60 μg/ml, 10 minutes at 37°, n=9): 205 ± 71 s

Molecule: trypsin [reference compound]
- clotting time ([1]; trypsin-treated blood, control 356±47): 49 ± 14 s

Molecule: unfractionated heparin sodium [UFH, reference compound]
- Mean Clotting Times ([1]; 0.2 Unit UFH per mL CWB, n=8): 648.54 ± 55.31 s
- Mean Clotting Times ([1]; 0.3 Unit UFH per mL CWB, n=5, control 246.56 ± 36.06): 507.52 ± 85.26 s
- Mean Clotting Times ([2]; 0.2 Unit UFH per mL CWB, n=16): 677.25 ± 55.33 s

B1: TF: Tissue Factor, the initiator of the extrinsic clotting cascade (protein, UniProt P13726 33-295, looked up)
Tissue factor: SGTTNTVAAYNLTWKSTNFKTILEWEPKPVNQVYTVQISTKSGDWKSKCFYTTDTECDLTDEIVKDVKQTYLARVFSYPAGNVESTGSAGEPLYENSPEFTPYLETNLGQPTIQSFEQVGTKVNVTVEDERTLVRRNNTFLSLRDVFGKDLIYTLYYWKSSSSGKKTAKTNTNEFLIDVDKGENYCFSVQAVIPSRTVNRKSTDSPVECMGQEKGEFREIFYIIGAVVFVVIILVIILAISLHKCRKAGVGQSWKENSPLNVS
- Mean Clotting Times ([1]; 0.2% TF, n=16): 100.13 ± 23.10 s
